Laboratory results: patent publication US20050279350A1, “Methods and apparatus for relieving headaches, rhinitis and other common ailments” (priority 1999, published 2005)
Several values for one entry are separate records, joined by “and”; a condition that tells them apart may be missing. Identical values can stand only once. Like-named read-outs stand apart in the source and are kept apart here. Marks after values point to notes of the source that are not given here.

System: human subjects with migraine and tension-type headaches, jaw pain
Assay type: in vivo
Conditions: for Est. Rate / Est. Total Dose / Number of Doses / Single Dose Duration / Total Dose / Total Treatment Time: self-selected effective dose; for 24-hr. Recur Rate / After Effects / Symptom Free, Minutes Post-Treatment / Symptom, Relief, Minutes Post-Treatment: moderate; for range of average dose duration / range of volume of gas: across severities
Text: The test device was a hand-held, multi-dose, disposable, dispenser that was approximately 3 to 4 inches long and 6/8 to ⅞ inches in diameter constructed as described above. The device consisted of a plastic twist-top flow regulator mounted on top of a pressurized steel cartridge containing liquid carbon dioxide. The tip of the flow regulator has a nosepiece that is the optimal size and configuration to place against and seal off a nostril for administration of the gas. In a number of subjects, the effective nasal and oral carbon dioxide flow rates, and maximum tolerable nasal and oral flow rates, were measured using a laboratory apparatus. This apparatus consisted of a flow regulator connected via tubing to a flow meter and a large tank of carbon dioxide. These flow data were used, together with the number of seconds gas was administered during therapy, to calculate the estimated dose of gas in milliliters.
Of the total of 15 subjects included in the analysis, 11 used the treatment for 35 headaches and 9 subjects used it for 9 allergy attacks. […] subjects treated both headache and allergy but on different days. The subjects included adults, elderly, and children of both sexes in good general health, having mild, moderate, and severe headaches or having allergies to plant, animal, or airborne allergens. The device was used to treat migraine and tension-type headaches, jaw pain, and allergies (allergic rhinitis, with symptoms that included sinus congestion, sneezing, and itchy throat and eyes). There was no limitation on the duration of symptoms before treatment with the device. Subjects with no prior use of the device and those who have used it (to treat allergy symptoms) previously were included.
Carbon dioxide (100%) was administered nasally by the subject for a few seconds via a nostril to fill the nasal passages while holding their breath, or taking breaths of room air occasionally if the dose was lengthy. The gas exited the other nostril. Such nasal administration is similar to presently marketed nasal inhalers except that the administered gas was not inhaled. […] Subjects took as many doses as they needed for relief. It is important to note that there were no number of doses, duration of dose, time between doses, or gas flow rate specified for the user. Subjects chose their own regimen for symptom relief. Similarly, in medical practice today, gas therapy is a “titrate to effect” therapy without a specified dosage.
The International Headache Society (IHS) divides headache intensity into three categories: mild, moderate, and severe. The rating of the intensity level depends on the extent to which the headache interferes with the ability to function. […] The IHS uses headache relief at two hours as its primary outcome measure for present-day headache drug studies. Since therapy of the present invention acts much faster than present-day drugs, the primary outcome measure selected for this analysis was headache relief at 30 minutes. Each of the headache outcome measures used for this analysis is as follows: • Headache relief efficacy at 1, 5, 15, and 30 minutes post-treatment—headache relief efficacy is obtained when a pre-treatment headache severity of mild, moderate, or severe severity is improved to a post-treatment severity of none, mild, or moderate respectively. • Headache free efficacy at 1, 5, 15, and 30 minutes post-treatment—headache free efficacy is obtained when a pre-treatment headache of mild, moderate, or severe severity is improved to a post-treatment severity of none. • Headache recurrence within 24 hours post-treatment—recurrence within 24 hours is defined as no or mild headache severity after treatment that then worsened to moderate or severe headache severity within 24 hours after treatment with no use of rescue medication before the worsening. • Safety parameter—safety is defined as no adverse after-effects of treatment.

[1] = Headache-All, mild, severe, 1 min post-treatment
[2] = Headache-All, mild, severe, 5 min post-treatment
[3] = Headache-All, mild, severe, 15 min post-treatment
[4] = Headache-All, mild, severe, 30 min post-treatment
[5] = Headache-All, severe - IHS criteria
[6] = Headache-All, severe - IHS criteria, 1 min post-treatment
[7] = Headache-All, severe - IHS criteria, 5 min post-treatment
[8] = Headache-All, severe - IHS criteria, 15 min post-treatment
[9] = Headache-All, severe - IHS criteria, 30 min post-treatment
[10] = Migraine, mild, severe, 1 min post-treatment
[11] = Migraine, mild, severe, 5 min post-treatment
[12] = Migraine, mild, severe, 15 min post-treatment
[13] = Migraine, mild, severe, 30 min post-treatment
[14] = Migraine, severe - IHS criteria
[15] = Migraine, severe - IHS criteria, 1 min post-treatment
[16] = Migraine, severe - IHS criteria, 5 min post-treatment
[17] = Migraine, severe - IHS criteria, 15 min post-treatment
[18] = Migraine, severe - IHS criteria, 30 min post-treatment
[19] = Tension, mild, severe, 1 min post-treatment
[20] = Tension, mild, severe, 5 min post-treatment
[21] = Tension, mild, severe, 15 min post-treatment
[22] = Tension, mild, severe, 30 min post-treatment
[23] = Tension, severe - IHS criteria, 1 min post-treatment
[24] = Tension, severe - IHS criteria, 5 min post-treatment
[25] = Tension, severe - IHS criteria, 15 min post-treatment
[26] = Tension, severe - IHS criteria, 30 min post-treatment

## O=C=O [carbon dioxide]
35 headaches
  headache recurrence 24 hours post-treatment: no instances of headache recurrence
Headache-All
  Est. Rate: 4 mL/s
  Est. Total Dose: 124 mL
  Number of Doses: 2 #
  Single Dose Duration: 15 s
  Total Dose: 32 s
  Total Treatment Time: 7 min
Headache-All, mild, severe
  24-hr. Recur Rate: 0%
  After Effects: 0%
[1]
  Symptom Free, Minutes Post-Treatment: 31%
  Symptom, Relief, Minutes Post-Treatment: 31%
[2]
  Symptom Free, Minutes Post-Treatment: 60%
  Symptom, Relief, Minutes Post-Treatment: 63%
[3]
  Symptom Free, Minutes Post-Treatment: 74%
  Symptom, Relief, Minutes Post-Treatment: 86%
[4]
  Symptom Free, Minutes Post-Treatment: 80%
  Symptom, Relief, Minutes Post-Treatment: 94%
[5]
  24-hr. Recur Rate: 0%
  After Effects: 0%
[6]
  Symptom Free, Minutes Post-Treatment: 16%
  Symptom, Relief, Minutes Post-Treatment: 16%
[7]
  Symptom Free, Minutes Post-Treatment: 52%
  Symptom, Relief, Minutes Post-Treatment: 52%
[8]
  Symptom Free, Minutes Post-Treatment: 72%
  Symptom, Relief, Minutes Post-Treatment: 72%
[9]
  Symptom Free, Minutes Post-Treatment: 80%
  Symptom, Relief, Minutes Post-Treatment: 84%
Migraine-All
  Est. Rate: 3 mL/s
  Est. Total Dose: 158 mL
  Number of Doses: 2 #
  Single Dose Duration: 29 s
  Total Dose: 57 s
  Total Treatment Time: 15 min
Migraine-Mild
  Est. Rate: 3 mL/s
  Est. Total Dose: 82 mL
  Number of Doses: 1 #
  Single Dose Duration: 23 s
  Total Dose: 30 s
  Total Treatment Time: 1 min
Migraine-Severe
  Est. Rate: 3 mL/s
  Est. Total Dose: 233 mL
  Number of Doses: 2 #
  Single Dose Duration: 35 s
  Total Dose: 83 s
  Total Treatment Time: 28 min
Migraine, mild, severe
  24-hr. Recur Rate: 0%
  After Effects: 0%
[10]
  Symptom Free, Minutes Post-Treatment: 60%
  Symptom, Relief, Minutes Post-Treatment: 60%
[11]
  Symptom Free, Minutes Post-Treatment: 60%
  Symptom, Relief, Minutes Post-Treatment: 60%
[12]
  Symptom Free, Minutes Post-Treatment: 60%
  Symptom, Relief, Minutes Post-Treatment: 60%
[13]
  Symptom Free, Minutes Post-Treatment: 90%
  Symptom, Relief, Minutes Post-Treatment: 90%
[14]
  24-hr. Recur Rate: 0%
  After Effects: 0%
[15]
  Symptom Free, Minutes Post-Treatment: 25%
  Symptom, Relief, Minutes Post-Treatment: 25%
[16]
  Symptom Free, Minutes Post-Treatment: 25%
  Symptom, Relief, Minutes Post-Treatment: 25%
[17]
  Symptom Free, Minutes Post-Treatment: 25%
  Symptom, Relief, Minutes Post-Treatment: 25%
[18]
  Symptom Free, Minutes Post-Treatment: 75%
  Symptom, Relief, Minutes Post-Treatment: 100%
Tension-All
  Est. Rate: 4 mL/s
  Est. Total Dose: 122 mL
  Number of Doses: 3 #
  Single Dose Duration: 8 s
  Total Dose: 24 s
  Total Treatment Time: 6 min
Tension-Mild
  Est. Rate: 3 mL/s
  Est. Total Dose: 28 mL
  Number of Doses: 2 #
  Single Dose Duration: 3 s
  Total Dose: 6 s
  Total Treatment Time: 2 min
Tension-Moderate
  Est. Rate: 4 mL/s
  Est. Total Dose: 50 mL
  Number of Doses: 2 #
  Single Dose Duration: 6 s
  Total Dose: 11 s
  Total Treatment Time: 4 min
Tension-Severe
  Est. Rate: 5 mL/s
  Est. Total Dose: 288 mL
  Number of Doses: 4 #
  Single Dose Duration: 15 s
  Total Dose: 56 s
  Total Treatment Time: 11 min
Tension, mild, severe
  24-hr. Recur Rate: 0%
  After Effects: 0%
[19]
  Symptom Free, Minutes Post-Treatment: 20%
  Symptom, Relief, Minutes Post-Treatment: 20%
[20]
  Symptom Free, Minutes Post-Treatment: 64%
  Symptom, Relief, Minutes Post-Treatment: 64%
[21]
  Symptom Free, Minutes Post-Treatment: 80%
  Symptom, Relief, Minutes Post-Treatment: 96%
[22]
  Symptom Free, Minutes Post-Treatment: 80%
  Symptom, Relief, Minutes Post-Treatment: 96%
Tension, severe - IHS criteria
  24-hr. Recur Rate: 0%
  After Effects: 0%
[23]
  Symptom Free, Minutes Post-Treatment: 14%
  Symptom, Relief, Minutes Post-Treatment: 14%
[24]
  Symptom Free, Minutes Post-Treatment: 55%
  Symptom, Relief, Minutes Post-Treatment: 55%
[25]
  Symptom Free, Minutes Post-Treatment: 77%
  Symptom, Relief, Minutes Post-Treatment: 77%
[26]
  Symptom Free, Minutes Post-Treatment: 80% and 77%
  Symptom, Relief, Minutes Post-Treatment: 77%
All subsequent mild and severe migraines, two to three doses for 25 sec each=120 ml
  headache outcome in an individual subject: completely eliminate
Analysis of the headache and allergy therapy data (Table IV)
  dose dependence of the treatment: dose dependent
At onset of a migraine, doses twice for 20 to 25 seconds
  headache outcome in an individual subject: completely aborts the migraine and it does not recur
Headache subjects
  adverse after effects of treatment: no subjects reported any adverse after effects
headache, while administering the first dose
  onset of symptom relief: immediate onset of symptom relief within seconds
Migraine and tension-type headache, occurring in seconds to minutes
  efficacy: 80-94%
Migraine headaches
  range of average dose duration: 30 to 83 s
  range of volume of gas: 82 to 233 mL
Mild migraine, first use of device, one dose for 30 sec=60 ml
  headache outcome in an individual subject: unable to improve
Moderate tension headache, one dose of 1 sec=2 ml
  headache outcome in an individual subject: no success
Severe jaw/tooth ache, three doses of 45 sec each=675 ml
  headache outcome in an individual subject: completely eliminate
Severe tension headache, three doses of 15 sec each=225 ml
  headache outcome in an individual subject: completely eliminate
Severe tension headaches, three occasions, six doses of 8 sec each=240 ml
  headache outcome in an individual subject: only moderate success
tension-type headaches
  range of average dose duration: 6 to 56 s
  range of volume of gas: 28 to 288 mL
